Results: patent US20260242343A1, “COMPOUND SERVING AS DDR1 KINASE INHIBITOR, AND MEDICINE” (NIPPON SHINYAKU CO., LTD., priority 2022, published 2026)
Structures can show the parent of a compound that is named as a salt.

Tests used:
DDR1 protein = molecular target: T1, DDR1 protein (Homo sapiens, UniProt Q08345); assay: Evaluation of DDR1 kinase inhibitory activity (LANCE Ultra TR-FRET); format: biochemical; conditions: DDR1 protein 0.5 nM, ATP 100 μM, 2 hours at room temperature; read-out: DDR-1 IC50
T1 construct: purchased Carna Biosciences 08-113
Description: The test was performed in duplicate.

[1] = molecular target: T2, DDR1 kinase in DDR1-expressing U2OS cells (Homo sapiens, UniProt Q08345); assay: DDR1 kinase inhibitory effect in DDR1-expressing U2OS cells (PathHunter, type I collagen stimulation); format: cell-based; conditions: type I collagen 50 μg/mL, 10% FBS, read-out: DDR-1 IC50
T2 construct: host or cells: U2OS
Description: Test compounds in DMSO were prepared at 10 mM and diluted with DMSO to final concentrations of 1000, 100, 10, 1, and 0.1 μM. These solutions were diluted further with E-MEM medium (Fujifilm Wako Pure Chemical Industries, 051-07615) containing 10% fetal bovine serum (FBS, Gibco, 10270106) to 60,000, 6,000, 600, 60, 6, and 0.6 nM to obtain test sample solutions.
DDR1-expressing U2OS cells (DiscoverX, 93-0894C3) suspended at 2.5×10^5 cells/mL in 10% FBS+E-MEM medium were seeded in 384-well plates (DiscoverX, 92-0013) in 20 μL portions and cultured overnight at 37° C. and 5% CO2.
The next day, the test sample solutions as prepared were added at 5 μL/well to final concentrations of 10,000, 1,000, 100, 10, 1, and 0.1 nM. After incubation at 37° C. and 5% CO2 for 1 hour, type I collagen (Nitta Gelatin, 631-00771) was added at 5 μL/well to a final concentration of 50 μg/mL, and cultured overnight at 37° C. and 5% CO2.
The next day, the plate was left at room temperature for 1 hour, after which 5 μL/well of detection solution was added according to the instruction manual for the PathHunter (registered trademark) Detection Kit (DiscoverX, 93-0001). […] The test was performed in duplicate.

T1 sequence (Q08345 19-876 isoform Q08345-2 limits assumed): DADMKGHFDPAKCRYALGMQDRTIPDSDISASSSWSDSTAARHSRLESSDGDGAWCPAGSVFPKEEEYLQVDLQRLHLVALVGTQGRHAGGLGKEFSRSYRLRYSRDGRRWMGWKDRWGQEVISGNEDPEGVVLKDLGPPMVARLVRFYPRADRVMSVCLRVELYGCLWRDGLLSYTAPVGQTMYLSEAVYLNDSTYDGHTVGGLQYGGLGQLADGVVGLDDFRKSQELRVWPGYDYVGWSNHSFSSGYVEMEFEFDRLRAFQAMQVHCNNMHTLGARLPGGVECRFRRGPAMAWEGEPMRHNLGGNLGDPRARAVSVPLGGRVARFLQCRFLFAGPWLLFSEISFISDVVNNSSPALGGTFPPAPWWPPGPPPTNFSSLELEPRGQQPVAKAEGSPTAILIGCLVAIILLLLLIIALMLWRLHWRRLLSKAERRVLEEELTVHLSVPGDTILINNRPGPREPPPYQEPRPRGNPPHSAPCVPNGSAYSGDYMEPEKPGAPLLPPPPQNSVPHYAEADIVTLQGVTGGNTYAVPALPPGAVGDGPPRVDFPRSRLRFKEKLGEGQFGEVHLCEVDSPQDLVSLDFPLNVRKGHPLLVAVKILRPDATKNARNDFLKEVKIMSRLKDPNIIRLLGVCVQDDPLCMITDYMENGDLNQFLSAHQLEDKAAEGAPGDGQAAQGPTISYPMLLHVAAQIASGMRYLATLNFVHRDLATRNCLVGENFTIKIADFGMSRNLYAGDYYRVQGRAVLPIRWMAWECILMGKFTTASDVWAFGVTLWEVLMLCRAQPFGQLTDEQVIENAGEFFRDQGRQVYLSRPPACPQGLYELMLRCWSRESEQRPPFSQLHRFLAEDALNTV
T2 sequence (Q08345 19-913): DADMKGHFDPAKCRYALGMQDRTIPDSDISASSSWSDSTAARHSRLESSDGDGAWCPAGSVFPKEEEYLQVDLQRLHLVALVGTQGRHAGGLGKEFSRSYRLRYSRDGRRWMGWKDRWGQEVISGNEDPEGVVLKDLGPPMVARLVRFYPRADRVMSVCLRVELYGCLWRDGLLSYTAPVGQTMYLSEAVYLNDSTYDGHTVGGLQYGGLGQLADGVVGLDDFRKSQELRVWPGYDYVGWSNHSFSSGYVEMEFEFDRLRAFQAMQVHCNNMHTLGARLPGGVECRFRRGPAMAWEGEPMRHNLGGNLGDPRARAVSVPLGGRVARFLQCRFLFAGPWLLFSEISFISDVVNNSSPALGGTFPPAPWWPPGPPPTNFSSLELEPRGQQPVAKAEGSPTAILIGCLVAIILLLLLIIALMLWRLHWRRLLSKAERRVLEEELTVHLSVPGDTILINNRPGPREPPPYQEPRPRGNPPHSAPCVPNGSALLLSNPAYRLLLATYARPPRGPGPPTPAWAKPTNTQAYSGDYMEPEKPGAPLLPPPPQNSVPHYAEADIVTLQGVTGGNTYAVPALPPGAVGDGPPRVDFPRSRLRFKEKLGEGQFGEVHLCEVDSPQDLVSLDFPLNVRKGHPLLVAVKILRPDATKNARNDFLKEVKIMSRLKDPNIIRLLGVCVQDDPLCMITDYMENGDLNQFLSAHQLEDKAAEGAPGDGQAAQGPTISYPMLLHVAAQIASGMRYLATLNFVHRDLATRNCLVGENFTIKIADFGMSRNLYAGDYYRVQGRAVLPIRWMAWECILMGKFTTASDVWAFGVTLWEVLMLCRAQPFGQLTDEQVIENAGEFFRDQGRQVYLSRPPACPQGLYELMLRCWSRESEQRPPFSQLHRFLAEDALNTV

Compound: O=C(N[C@H]1C[C@H](OC(F)(F)F)C[C@@H]1O)c1ccc(OC(F)F)c(C#Cc2cncc(F)c2)c1 [Example 2, 4-(Difluoromethoxy)-3-[2-(5-fluoropyridin-3-yl)ethynyl]-N-[(1S,2S,4S)-2-hydroxy-4-(trifluoromethoxy)cyclopentyl]benzamide]
- IC50 (DDR1 protein): 3.6 nM
- IC50 [1]: 38 nM

Compound: CCc1ncc(C(=O)N[C@H]2C[C@H](OC(F)(F)F)C[C@@H]2O)cc1/C=C(\F)c1cnc(N)nc1 [Example 11, 5-[(1Z)-2-(2-Aminopyrimidin-5-yl)-2-fluoroethenyl]-6-ethyl-N-[(1S,2S,4S)-2-hydroxy-4-(trifluoromethoxy)cyclopentyl]pyridine-3-carboxamide]
- IC50 (DDR1 protein): 22 nM
- IC50 [1]: 120 nM

Compound: Nc1ncc(/C=C(\F)c2cc(C(=O)N[C@H](CO)CCOC(F)(F)F)ccc2OC(F)F)cn1 [Example 12, 3-[(1Z)-2-(2-Aminopyrimidin-5-yl)-1-fluoroethenyl]-4-(difluoromethoxy)-N-[(2S)-1-hydroxy-4-(trifluoromethoxy)butan-2-yl]benzamide]
- IC50 (DDR1 protein): 1.1 nM
- IC50 [1]: 14 nM

Compound: COc1cncc(/C=C(\F)c2cc(C(=O)N[C@H]3C[C@H](OC(F)(F)F)C[C@@H]3O)cc(F)c2OC(F)F)c1 [Example 13, 4-(Difluoromethoxy)-3-fluoro-5-[(1Z)-1-fluoro-2-(5-methoxypyridin-3-yl)ethenyl]-N-[(1S,2S,4S)-2-hydroxy-4-(trifluoromethoxy)cyclopentyl]benzamide]
- IC50 (DDR1 protein): 0.87 nM
- IC50 [1]: 1.9 nM

Compound: NC(=O)c1ncc2cc(-c3cc(C(=O)N[C@H]4C[C@H](OC(F)(F)F)C[C@@H]4O)cnc3C(F)(F)F)ccn12 [Example 15, 5-{3-Carbamoylimidazo[1,5-a]pyridin-7-yl}-N-[(1S,2S,4S)-2-hydroxy-4-(trifluoromethoxy)cyclopentyl]-6-(trifluoromethyl)pyridine-3-carboxamide]
- IC50 (DDR1 protein): 2.2 nM
- IC50 [1]: 14 nM

Compound: CCc1ccc(C(=O)N[C@H]2C[C@H](OC(F)(F)F)C[C@@H]2O)cc1NC(=O)c1cnc(-c2ccccc2)o1 [Example 16, N-(2-Ethyl-5-{[(1S,2S,4S)-2-hydroxy-4-(trifluoromethoxy)cyclopentyl]carbamoyl}phenyl)-2-phenyl-1,3-oxazole-5-carboxamide]
- IC50 (DDR1 protein): 7.5 nM
- IC50 [1]: 13 nM

Compound: CCc1ccc(C(=O)N[C@H]2C[C@H](OC(F)(F)F)C[C@@H]2O)cc1NC(=O)c1cnc(CC2CC2)s1 [Example 17, 2-(Cyclopropylmethyl)-N-(2-ethyl-5-{[(1S,2S,4S)-2-hydroxy-4-(trifluoromethoxy)cyclopentyl]carbamoyl}phenyl)-1,3-thiazole-5-carboxamide]
- IC50 (DDR1 protein): 1.6 nM
- IC50 [1]: 17 nM

Compound: O=C(N[C@H]1CC2(CC2)C[C@@H]1O)c1ccc(OC(F)F)c(C#Cc2cncnc2)c1 [Example 18, 4-(Difluoromethoxy)-N-[(5S,6S)-6-hydroxyspiro[2.4]heptan-5-yl]-3-[2-(pyrimidin-5-yl)ethynyl]benzamide]
- IC50 (DDR1 protein): 22 nM
- IC50 [1]: 150 nM

Compound: O=C(N[C@H]1CC2(CC2)C[C@@H]1O)c1ccc(OC(F)F)c(C#Cc2cncc(F)c2)c1 [Example 19, 4-(Difluoromethoxy)-3-[2-(5-fluoropyridin-3-yl)ethynyl]-N-[(5S,6S)-6-hydroxyspiro[2.4]heptan-5-yl]benzamide]
- IC50 (DDR1 protein): 3.2 nM
- IC50 [1]: 27 nM

Compound: Nc1ncc(C#Cc2cc(C(=O)N[C@H]3CC(F)(F)CC[C@@H]3O)ccc2OC(F)F)cn1 [Example 20, 3-[2-(2-Aminopyrimidin-5-yl)ethynyl]-N-[(1S,2S)-5,5-difluoro-2-hydroxycyclohexyl]-4-(difluoromethoxy)benzamide p-toluenesulfonate]
- IC50 (DDR1 protein): 3.1 nM
- IC50 [1]: 16 nM

Compound: Nc1ncc(C#Cc2cc(C(=O)N[C@H]3CC4(CC4)C[C@@H]3O)ccc2OC(F)F)cn1 [Example 21, 3-[2-(2-Aminopyrimidin-5-yl)ethynyl]-4-(difluoromethoxy)-N-[(5S,6S)-6-hydroxyspiro[2.4]heptan-5-yl]benzamide]
- IC50 (DDR1 protein): 0.27 nM
- IC50 [1]: 11 nM

Compound: COc1nc(N)ncc1C#Cc1cc(C(=O)N[C@H]2CC3(CC3)C[C@@H]2O)ccc1OC(F)F [Example 23, 3-[2-(2-Amino-4-methoxypyrimidin-5-yl)ethynyl]-4-(difluoromethoxy)-N-[(5S,6S)-6-hydroxyspiro[2.4]heptan-5-yl]benzamide]
- IC50 (DDR1 protein): 0.25 nM
- IC50 [1]: 4.1 nM

Compound: Cn1cc(C#Cc2cc(C(=O)N[C@H](CO)CCOC(F)(F)F)ccc2OC(F)F)cn1 [Example 24, 4-(Difluoromethoxy)-N-[(2S)-1-hydroxy-4-(trifluoromethoxy)butan-2-yl]-3-[2-(1-methyl-1H-pyrazol-4-yl)ethynyl]benzamide]
- IC50 (DDR1 protein): 36 nM
- IC50 [1]: 97 nM

Compound: Nc1cnc(/C(F)=C/c2cc(C(=O)N[C@H]3CC(F)(F)CC[C@@H]3O)ccc2OC(F)F)cn1 [Example 25, 3-[(1Z)-2-(5-Aminopyrazin-2-yl)-2-fluoroethenyl]-N-[(1S,2S)-5,5-difluoro-2-hydroxycyclohexyl]-4-(difluoromethoxy)benzamide]
- IC50 (DDR1 protein): 1.7 nM
- IC50 [1]: 19 nM

Compound: Nc1cnc(/C(F)=C/c2cc(C(=O)N[C@H]3CC4(CC4)C[C@@H]3O)ccc2OC(F)F)cn1 [Example 26, 3-[(1Z)-2-(5-Aminopyrazin-2-yl)-2-fluoroethenyl]-4-(difluoromethoxy)-N-[(5S,6S)-6-hydroxyspiro[2.4]heptan-5-yl]benzamide]
- IC50 (DDR1 protein): 5.1 nM
- IC50 [1]: 20 nM

Compound: NC(=O)c1ncc2cc(-c3cc(C(=O)N[C@H]4CC(F)(F)CC[C@@H]4O)ccc3C(F)(F)F)ccn12 [Example 27, 7-(5-{[(1S,2S)-5,5-Difluoro-2-hydroxycyclohexyl]carbamoyl}-2-(trifluoromethyl)phenyl)imidazo[1,5-a]pyridine-3-carboxamide]
- IC50 (DDR1 protein): 4 nM
- IC50 [1]: 10 nM

Compound: NC(=O)c1ncc2cc(-c3cc(C(=O)N[C@H]4CC5(CC5)C[C@@H]4O)ccc3C(F)(F)F)ccn12 [Example 28, 7-(5-{[(5S,6S)-6-Hydroxyspiro[2.4]heptan-5-yl]carbamoyl}-2-(trifluoromethyl)phenyl)imidazo[1,5-a]pyridine-3-carboxamide]
- IC50 (DDR1 protein): 0.86 nM
- IC50 [1]: 7.8 nM

Compound: NC(=O)c1ncc2cc(-c3cc(C(=O)N[C@H]4C[C@H](OC(F)(F)F)C[C@@H]4O)ccc3C(F)(F)F)ccn12 [Example 29, 7-(5-{[(1S,2S,4S)-2-Hydroxy-4-(trifluoromethoxy)cyclopentyl]carbamoyl}-2-(trifluoromethyl)phenyl)imidazo[1,5-a]pyridine-3-carboxamide]
- IC50 (DDR1 protein): 0.81 nM
- IC50 [1]: 3.1 nM

Compound: NC(=O)c1ncc2cc(-c3cc(C(=O)N[C@H](CO)CCOC(F)(F)F)cnc3C(F)(F)F)ccn12 [Example 30, 5-{3-Carbamoylimidazo[1,5-a]pyridin-7-yl}-N-[(2S)-1-hydroxy-4-(trifluoromethoxy)butan-2-yl]-6-(trifluoromethyl)pyridine-3-carboxamide]
- IC50 (DDR1 protein): 18 nM
- IC50 [1]: 78 nM

Compound: NC(=O)c1ncc2cc(-c3cc(C(=O)N[C@H](CO)CCOC(F)(F)F)ccc3C(F)(F)F)ccn12 [Example 31, 7-(5-{[(2S)-1-Hydroxy-4-(trifluoromethoxy)butan-2-yl]carbamoyl}-2-(trifluoromethyl)phenyl)imidazo[1,5-a]pyridine-3-carboxamide]
- IC50 (DDR1 protein): 2.2 nM
- IC50 [1]: 5.3 nM

Compound: CCc1ccc(C(=O)N[C@H](CO)CCOC(F)(F)F)cc1NC(=O)c1cncc(-c2cccc(F)c2)c1 [Example 32, N-(2-Ethyl-5-{[(2S)-1-hydroxy-4-(trifluoromethoxy)butan-2-yl]carbamoyl}phenyl)-5-(3-fluorophenyl)pyridine-3-carboxamide]
- IC50 (DDR1 protein): 26 nM
- IC50 [1]: 54 nM

Compound: CCc1ccc(C(=O)N[C@H]2C[C@H](OC(F)(F)F)C[C@@H]2O)cc1NC(=O)c1cncc(-c2cccc(F)c2)c1 [Example 33, N-(2-Ethyl-5-{[(1S,2S,4S)-2-hydroxy-4-(trifluoromethoxy)cyclopentyl]carbamoyl}phenyl)-5-(3-fluorophenyl)pyridine-3-carboxamide]
- IC50 (DDR1 protein): 1.8 nM
- IC50 [1]: 7.4 nM

Compound: Nc1ncc(/C(F)=C/c2cc(C(=O)N[C@H](CO)c3cccc(F)c3)ccc2OC(F)F)cn1 [Example 34, 3-[(1Z)-2-(2-Aminopyrimidin-5-yl)-2-fluoroethenyl]-4-(difluoromethoxy)-N-[(1S)-1-(3-fluorophenyl)-2-hydroxyethyl]benzamide]
- IC50 (DDR1 protein): 8.2 nM
- IC50 [1]: 44 nM

Compound: Nc1ncc(C#Cc2cc(C(=O)N[C@H](CO)Cc3ccc(Cl)cc3)ccc2OC(F)F)cn1 [Example 35, 3-[2-(2-Aminopyrimidin-5-yl)ethynyl]-N-[(2S)-1-(4-chlorophenyl)-3-hydroxypropan-2-yl]-4-(difluoromethoxy)benzamide hydrochloride]
- IC50 (DDR1 protein): 3.3 nM
- IC50 [1]: 12 nM

Compound: Nc1ncc(C#Cc2cc(C(=O)N[C@H](CO)c3ccccc3)ccc2OC(F)F)cn1 [Example 36, 3-[2-(2-Aminopyrimidin-5-yl)ethynyl]-4-(difluoromethoxy)-N-[(1S)-2-hydroxy-1-phenylethyl]benzamide hydrochloride]
- IC50 (DDR1 protein): 8.6 nM
- IC50 [1]: 230 nM
